Source: patent publication US10792289B2 (Horizon Orphan LLC, priority 2009, dated 2020)

Test system: stable CF patients
Test: Phase 2 study: pulmonary function (FEV1, FVC, FEF 25-75)
Assay type: in vivo, human
Parameters: FEF 25-75, Median / FEV1, Day 14, Mean / FEF 25-75, Mean: unit not given here; FEV1, Day 1, Mean / FEV1, Day 1, Median / FEV1, Day 14, Median / FEV1, Day 28, Mean / FEV1, Day 28, Median: unit: L
Conditions: EE population
Procedure: The following dosage regimens (as nebulizer loaded doses) were evaluated: 120 mg QD (daily); 240 mg QD (daily); and 240 mg BID (twice daily).
Efficacy endpoints including clinical endpoints, pulmonary function tests, and additional microbiological parameters were assessed as change from Day 1 to subsequent visits where the endpoint data was collected. Time to need for intravenous/oral/inhaled anti-pseudomonal antimicrobials were assessed from Day 1 until final visit using survival analysis. The primary population for efficacy analysis was the EE population, but efficacy endpoints were also analyzed using the MITT population.
Changes in FEV1 (forced expiratory volume in 1 second), FVC (forced vital capacity) and FEF 25-75 (forced expiratory flow 25-75%) from Day 1 to all subsequent visits were determined for patients. Tables 26 and 27 summarize the results for FEV1 measurements in EE and MITT populations, respectively. FIGS. 7 and 8 show graphs of percent change in FEV1 (L) and percent change in FEV1(L) vs. placebo, respectively, at Day 28 for the EET population treated with placebo, 120 mg QD, 240 mg QD, or 240 mg BID. […] Tables 28 and 29 summarize the results for predicted FEVI measurements in EE and MITT populations, respectively. Tables 30 and 31 summarize results for FEF 25-75 measurements in EE and MITT populations, respectively.

[1] = Day 1 (baseline), combined 240 mg QD and BID
[2] = Day 14, combined 240 mg QD and BID

C[C@H]1COc2c(N3CCN(C)CC3)c(F)cc3c(=O)c(C(=O)O)cn1c23 [Levofloxacin, levofloxacin]
% predicted FEV1, Day 1, Mean (120 mg QD): 54.0 % predicted | % predicted FEV1, Day 1, Median (120 mg QD): 53.0 % predicted | % predicted FEV1, Day 14, Mean (120 mg QD): 54.7 % predicted | % predicted FEV1, Day 14, Median (120 mg QD): 53.0 % predicted | % predicted FEV1, Day 28, Mean (120 mg QD): 55.0 % predicted | % predicted FEV1, Day 28, Median (120 mg QD): 52.0 % predicted | FEF 25-75, Percent Change from Baseline to Day 14, Mean (120 mg QD): 0.41% | FEF 25-75, Percent Change from Baseline to Day 14, Median (120 mg QD): 0.45% | FEF 25-75, Percent Change from Baseline to Day 28, Mean (120 mg QD): 0.73% | FEF 25-75, Percent Change from Baseline to Day 28, Median (120 mg QD): 2.70% | FEV1, Day 1, Mean (120 mg QD): 1.99 | FEV1, Day 1, Median (120 mg QD): 1.87 | FEV1, Day 14, Mean (120 mg QD): 2.00 | FEV1, Day 14, Median (120 mg QD): 1.82 | FEV1, Day 28, Mean (120 mg QD): 2.03 | FEV1, Day 28, Median (120 mg QD): 1.91 | FEV1, Percent Change from Baseline to Day 14, Mean (120 mg QD): 1.13% | FEV1, Percent Change from Baseline to Day 14, Median (120 mg QD): 0.56% | FEV1, Percent Change from Baseline to Day 28, Mean (120 mg QD): 1.71% | FEV1, Percent Change from Baseline to Day 28, Median (120 mg QD): 1.06% | % predicted FEV1, Day 1, Mean (240 mg BID): 48.2 % predicted | % predicted FEV1, Day 1, Median (240 mg BID): 45.5 % predicted | % predicted FEV1, Day 14, Mean (240 mg BID): 51.7 % predicted | % predicted FEV1, Day 14, Median (240 mg BID): 49.5 % predicted | % predicted FEV1, Day 28, Mean (240 mg BID): 50.5 % predicted | % predicted FEV1, Day 28, Median (240 mg BID): 49.0 % predicted | FEF 25-75, Percent Change from Baseline to Day 14, Mean (240 mg BID): 16.99% | FEF 25-75, Percent Change from Baseline to Day 14, Median (240 mg BID): 11.66% | FEF 25-75, Percent Change from Baseline to Day 28, Mean (240 mg BID): 13.11% | FEF 25-75, Percent Change from Baseline to Day 28, Median (240 mg BID): 5.71% | FEV1, Day 1, Mean (240 mg BID): 1.86 | FEV1, Day 1, Median (240 mg BID): 1.70 | FEV1, Day 14, Mean (240 mg BID): 2.02 | FEV1, Day 14, Median (240 mg BID): 1.88 | FEV1, Day 28, Mean (240 mg BID): 1.90 | FEV1, Percent Change from Baseline to Day 14, Mean (240 mg BID): 8.87% | FEV1, Percent Change from Baseline to Day 14, Median (240 mg BID): 7.51% | FEV1, Percent Change from Baseline to Day 28, Mean (240 mg BID): 5.05% | FEV1, Percent Change from Baseline to Day 28, Median (240 mg BID): 4.55% | % predicted FEV1, Day 1, Mean (240 mg QD): 55.9 % predicted | % predicted FEV1, Day 1, Median (240 mg QD): 56.0 % predicted | % predicted FEV1, Day 14, Mean (240 mg QD): 57.7 % predicted | % predicted FEV1, Day 14, Median (240 mg QD): 62.0 % predicted | % predicted FEV1, Day 28, Mean (240 mg QD): 57.3 % predicted | % predicted FEV1, Day 28, Median (240 mg QD): 58.0 % predicted | FEF 25-75, Percent Change from Baseline to Day 14, Mean (240 mg QD): 9.58% | FEF 25-75, Percent Change from Baseline to Day 14, Median (240 mg QD): 4.41% | FEF 25-75, Percent Change from Baseline to Day 28, Mean (240 mg QD): 4.70% | FEF 25-75, Percent Change from Baseline to Day 28, Median (240 mg QD): 5.77% | FEV1, Day 1, Mean (240 mg QD): 2.09 | FEV1, Day 1, Median (240 mg QD): 2.02 | FEV1, Day 14, Mean (240 mg QD): 2.16 | FEV1, Day 14, Median (240 mg QD): 2.09 | FEV1, Day 28, Mean (240 mg QD): 2.13 | FEV1, Day 28, Median (240 mg QD): 2.15 | FEV1, Percent Change from Baseline to Day 14, Mean (240 mg QD): 3.84% | FEV1, Percent Change from Baseline to Day 14, Median (240 mg QD): 1.92% | FEV1, Percent Change from Baseline to Day 28, Mean (240 mg QD): 2.51% | FEV1, Percent Change from Baseline to Day 28, Median (240 mg QD): 1.28% | % predicted FEV1, Day 1, Mean (Combined 240 mg QD and BID): 52.1 % predicted | % predicted FEV1, Day 1, Median (Combined 240 mg QD and BID): 51.0 % predicted | % predicted FEV1, Day 14, Mean (Combined 240 mg QD and BID): 54.7 % predicted | % predicted FEV1, Day 14, Median (Combined 240 mg QD and BID): 52.0 % predicted | % predicted FEV1, Day 28, Mean (Combined 240 mg QD and BID): 54.0 % predicted | % predicted FEV1, Day 28, Median (Combined 240 mg QD and BID): 54.0 % predicted | FEF 25-75, Percent Change from Baseline to Day 14, Mean (Combined 240 mg QD and BID): 13.23% | FEF 25-75, Percent Change from Baseline to Day 14, Median (Combined 240 mg QD and BID): 8.79% | FEF 25-75, Percent Change from Baseline to Day 28, Mean (Combined 240 mg QD and BID): 8.78% | FEF 25-75, Percent Change from Baseline to Day 28, Median (Combined 240 mg QD and BID): 5.74% | FEV1, Day 1, Mean (Combined 240 mg QD and BID): 1.98 | FEV1, Day 1, Median (Combined 240 mg QD and BID): 1.81 | FEV1, Day 14, Mean (Combined 240 mg QD and BID): 2.09 | FEV1, Day 14, Median (Combined 240 mg QD and BID): 2.03 | FEV1, Day 28, Mean (Combined 240 mg QD and BID): 2.02 | FEV1, Day 28, Median (Combined 240 mg QD and BID): 1.98 | FEV1, Percent Change from Baseline to Day 14, Mean (Combined 240 mg QD and BID): 6.32% | FEV1, Percent Change from Baseline to Day 14, Median (Combined 240 mg QD and BID): 3.94% | FEV1, Percent Change from Baseline to Day 28, Mean (Combined 240 mg QD and BID): 3.75% | FEV1, Percent Change from Baseline to Day 28, Median (Combined 240 mg QD and BID): 2.80% | FEF 25-75, Mean (Day 1 (baseline), 120 mg QD): 1.17 | FEF 25-75, Median (Day 1 (baseline), 120 mg QD): 0.98 | FEF 25-75, Mean (Day 1 (baseline), 240 mg BID): 0.85 | FEF 25-75, Median (Day 1 (baseline), 240 mg BID): 0.68 | FEF 25-75, Mean (Day 1 (baseline), 240 mg QD): 1.22 | FEF 25-75, Median (Day 1 (baseline), 240 mg QD): 1.10 | FEF 25-75, Mean [1]: 1.04 | FEF 25-75, Median [1]: 0.83 | FEF 25-75, Mean (Day 14, 120 mg QD): 1.18 | FEF 25-75, Median (Day 14, 120 mg QD): 0.99 | FEF 25-75, Mean (Day 14, 240 mg BID): 1.00 | FEF 25-75, Median (Day 14, 240 mg BID): 0.78 | FEF 25-75, Mean (Day 14, 240 mg QD): 1.33 | FEF 25-75, Median (Day 14, 240 mg QD): 1.11 | FEF 25-75, Mean [2]: 1.17 | FEF 25-75, Median [2]: 0.92 | FEF 25-75, Mean (Day 28, 120 mg QD): 1.23 | FEF 25-75, Median (Day 28, 120 mg QD): 1.03 | FEF 25-75, Mean (Day 28, 240 mg BID): 0.93 | FEF 25-75, Median (Day 28, 240 mg BID): 0.78 | FEF 25-75, Mean (Day 28, 240 mg QD): 1.27 | FEF 25-75, Median (Day 28, 240 mg QD): 1.15 | FEF 25-75, Mean (Day 28, combined 240 mg QD and BID): 1.10
